Key:
[1] = target: T1, Prostaglandin G/H synthase 1 (Ovis aries, UniProt P05979); assay: Inhibition of ovine COX1 by enzyme immuno assay
T1 sequence (P05979 whole entry): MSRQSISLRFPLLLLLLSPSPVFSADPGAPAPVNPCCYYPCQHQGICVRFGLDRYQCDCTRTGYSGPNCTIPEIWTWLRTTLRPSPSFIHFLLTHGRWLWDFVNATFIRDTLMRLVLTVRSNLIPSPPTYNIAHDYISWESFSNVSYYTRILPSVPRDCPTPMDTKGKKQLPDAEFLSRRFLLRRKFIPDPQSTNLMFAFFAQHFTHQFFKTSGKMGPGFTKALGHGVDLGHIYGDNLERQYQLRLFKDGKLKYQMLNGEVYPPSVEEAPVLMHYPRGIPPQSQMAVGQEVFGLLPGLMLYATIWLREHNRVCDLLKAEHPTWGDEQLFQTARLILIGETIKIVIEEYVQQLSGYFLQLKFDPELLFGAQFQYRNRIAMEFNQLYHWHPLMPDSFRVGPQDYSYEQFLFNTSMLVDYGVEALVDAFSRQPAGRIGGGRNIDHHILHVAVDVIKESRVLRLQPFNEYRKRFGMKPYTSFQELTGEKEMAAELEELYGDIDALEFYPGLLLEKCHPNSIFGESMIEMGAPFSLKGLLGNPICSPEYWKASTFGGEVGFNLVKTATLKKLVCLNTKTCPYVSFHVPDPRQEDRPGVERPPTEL

[2] = species on record: Ovis aries; assay: Selectivity index, ratio of IC50 for ovine COX1 to IC50 for ovine COX2
[3] = Effect on nitric oxide release in pH 7.4 PBS buffer at 37 degC after 1.5 hrs; assay type: functional
[4] = Effect on nitric oxide release in pH 7.4 PBS buffer in presence of rat serum at 37 degC after 1.5 hrs; assay type: functional

SMILES	IC50 [1] [nM]	Ratio IC50 [2]	Activity [3] [%]	Activity [4] [%]
CS(=O)(=O)c1ccc(/C=C(/C(=O)OCO/N=[N+](/[O-])N2CCCC2)c2cccc(Br)c2)cc1	2500	0.22	6.9	48.6
CCN(CC)/[N+]([O-])=N/O	–	–	85	85.1
CC(=O)Nc1ccc(/C(=C\c2ccc(S(C)(=O)=O)cc2)C(=O)OCO/N=[N+](/[O-])N2CCCC2)cc1	> 100000	> 106	9.9	73
CCN(CC)/[N+]([O-])=N\OCOC(=O)/C(=C/c1ccc(S(C)(=O)=O)cc1)c1cccc(Br)c1	1100	0.03	3.2	59.2
CS(=O)(=O)c1ccc(/C=C(/C(=O)OCO/N=[N+](/[O-])N2CCCC2)c2ccc(F)cc2)cc1	> 100000	> 9.2	11.3	67.1
CCN(CC)/[N+]([O-])=N\OCOC(=O)/C(=C/c1ccc(S(C)(=O)=O)cc1)c1ccc(F)cc1	1000	0.43	7.1	75.3
CCN(CC)/[N+]([O-])=N\OCOC(=O)/C(=C/c1ccc(S(C)(=O)=O)cc1)c1ccc(NC(C)=O)cc1	> 100000	> 5.9	6.5	70.4
